Results reported in PubChem BioAssay AID248 (DTP/NCI, 2004).
“And” between values parts separate entries of the source, which are not always exact repeats. Equal values may be shown once. Inconclusive results and toxic doses are left out. Cut-off read from the data, not from the text of the source: active = T/C of 150% or more; inactive = T/C below 125%.

Test system: L1210 leukemia ip in BDF1 mice, survival T/C
Experiment: NCI In Vivo Anticancer Drug Screen. Data for tumor model L1210 Leukemia (intraperitoneal) in B6D2F1 (BDF1) mice
Details: endpoint: mean survival time, higher = longer survival
How it was run: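 Ratio derived from survival: compound-dosed mice over vehicle-dosed mice, all bearing a transplantable tumor.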

[1] = dose: 100.0 mg/kg/injection, schedule: Q01DX001 (ip), vehicle: carboxymethylcellulose (CMC)
[2] = dose: 200.0 mg/kg/injection, schedule: Q01DX001 (ip), vehicle: carboxymethylcellulose (CMC)
[3] = dose: 400.0 mg/kg/injection, schedule: Q01DX001 (ip), vehicle: carboxymethylcellulose (CMC)
[4] = dose: 100.0 mg/kg/injection, schedule: Q01DX009 (ip), vehicle: saline with Tween-80
[5] = dose: 100.0 mg/kg/injection, schedule: Q04DX002 (ip), vehicle: saline with Tween-80
[6] = dose: 100.0 mg/kg/injection, schedule: Q04DX003 (ip), vehicle: saline with Tween-80
[7] = dose: 200.0 mg/kg/injection, schedule: Q01DX009 (ip), vehicle: saline with Tween-80
[8] = dose: 200.0 mg/kg/injection, schedule: Q04DX002 (ip), vehicle: saline with Tween-80
[9] = dose: 200.0 mg/kg/injection, schedule: Q04DX003 (ip), vehicle: saline with Tween-80
[10] = dose: 400.0 mg/kg/injection, schedule: Q01DX009 (ip), vehicle: saline with Tween-80
[11] = dose: 400.0 mg/kg/injection, schedule: Q04DX002 (ip), vehicle: saline with Tween-80
[12] = dose: 400.0 mg/kg/injection, schedule: Q04DX003 (ip), vehicle: saline with Tween-80
[13] = dose: 100.0 mg/kg/injection, schedule: Q01DX001 (ip), vehicle: saline
[14] = dose: 200.0 mg/kg/injection, schedule: Q01DX001 (ip), vehicle: saline
[15] = dose: 400.0 mg/kg/injection, schedule: Q01DX001 (ip), vehicle: saline
[16] = dose: 75.0 mg/kg/injection, schedule: Q01DX001 (ip), vehicle: saline
[17] = dose: 150.0 mg/kg/injection, schedule: Q01DX001 (ip), vehicle: saline
[18] = dose: 300.0 mg/kg/injection, schedule: Q01DX001 (ip), vehicle: saline
[19] = dose: 50.0 mg/kg/injection, schedule: Q01DX001 (ip), vehicle: saline

Measured: T/C

O=C(COc1cccc(Cl)c1)Nc1ccc(C(=O)CCl)cc1
inactive: dose: 100.0 mg/kg/injection, schedule: Q01DX001 (ip), vehicle: gum acacia 90 % of control | dose: 200.0 mg/kg/injection, schedule: Q01DX001 (ip), vehicle: gum acacia 100 % of control | dose: 400.0 mg/kg/injection, schedule: Q01DX001 (ip), vehicle: gum acacia 99 % of control

COc1ccccc1CN1CCCN(Cc2ccccc2OC)C1
inactive: [1] 97 % of control | [2] 105 % of control | [3] 97 % of control

O=C(O)CCCN1C(=O)CCC1=O
inactive: dose: 100.0 mg/kg/injection, schedule: Q04DX003 (ip), vehicle: saline 97 % of control | dose: 200.0 mg/kg/injection, schedule: Q04DX003 (ip), vehicle: saline 95 % of control | dose: 400.0 mg/kg/injection, schedule: Q04DX003 (ip), vehicle: saline 106 % of control

Cc1cc2nc(N)sc2cc1C
inactive: dose: 25.0 mg/kg/injection, schedule: Q01DX009 (ip), vehicle: Klucel (hydroxypropylcellulose) (HPC) 101 % of control | dose: 50.0 mg/kg/injection, schedule: Q04DX003 (ip), vehicle: Klucel (hydroxypropylcellulose) (HPC) 100 % of control | dose: 100.0 mg/kg/injection, schedule: Q04DX003 (ip), vehicle: Klucel (hydroxypropylcellulose) (HPC) 89 % of control

Nc1cc(O)c(CCCNC(=O)CBr)c(-c2ccccc2)c1
inactive: dose: 100.0 mg/kg/injection, schedule: Q01DX001 (ip), vehicle: Klucel (hydroxypropylcellulose) (HPC) 92 % of control | dose: 200.0 mg/kg/injection, schedule: Q01DX001 (ip), vehicle: Klucel (hydroxypropylcellulose) (HPC) 105 % of control | dose: 400.0 mg/kg/injection, schedule: Q01DX001 (ip), vehicle: Klucel (hydroxypropylcellulose) (HPC) 102 % of control

CC1CCCC1OC(=O)c1ccc([N+](=O)[O-])cc1 (stereo not drawn)
inactive: [1] 104 % of control | [2] 102 % of control | [3] 93 % of control

NC(N)=NNC=NCCc1ccc(O)cc1
inactive: dose: 15.0 mg/kg/injection, schedule: Q01DX Z (ip), vehicle: carboxymethylcellulose (CMC) 107 % of control | dose: 30.0 mg/kg/injection, schedule: Q01DX Z (ip), vehicle: carboxymethylcellulose (CMC) 98 % of control | dose: 60.0 mg/kg/injection, schedule: Q01DX Z (ip), vehicle: carboxymethylcellulose (CMC) 101 % of control | dose: 120.0 mg/kg/injection, schedule: Q01DX Z (ip), vehicle: carboxymethylcellulose (CMC) 103 % of control

C[N+](C)(C)c1ccc(/C=N\O)cc1
inactive: dose: 6.25 mg/kg/injection, schedule: Q04DX003 (ip), vehicle: saline 95 % of control | dose: 12.5 mg/kg/injection, schedule: Q04DX003 (ip), vehicle: saline 102 % of control

COC(=O)c1ccccc1NC(=O)c1cc(C(=O)O)c(C(=O)Nc2ccccc2C(=O)OC)cc1C(=O)O
inactive: [4] 93 % of control and 107 % of control | [5] 100 % of control and 103 % of control | [6] 102 % of control | [7] 97 % of control and 113 % of control | [8] 106 % of control and 109 % of control | [9] 100 % of control | [10] 97 % of control and 92 % of control | [11] 96 % of control and 92 % of control | [12] 102 % of control

CCOC(=O)C(=O)Nc1ncn[nH]1
inactive: dose: 100.0 mg/kg/injection, schedule: Q01DX005 (ip), vehicle: Klucel (hydroxypropylcellulose) (HPC) 95 % of control | dose: 100.0 mg/kg/injection, schedule: Q01DX009 (ip), vehicle: Klucel (hydroxypropylcellulose) (HPC) 96 % of control | dose: 100.0 mg/kg/injection, schedule: Q04DX002 (ip), vehicle: Klucel (hydroxypropylcellulose) (HPC) 96 % of control | dose: 200.0 mg/kg/injection, schedule: Q01DX005 (ip), vehicle: Klucel (hydroxypropylcellulose) (HPC) 98 % of control | dose: 200.0 mg/kg/injection, schedule: Q01DX009 (ip), vehicle: Klucel (hydroxypropylcellulose) (HPC) 104 % of control | dose: 200.0 mg/kg/injection, schedule: Q04DX002 (ip), vehicle: Klucel (hydroxypropylcellulose) (HPC) 90 % of control | dose: 400.0 mg/kg/injection, schedule: Q01DX005 (ip), vehicle: Klucel (hydroxypropylcellulose) (HPC) 103 % of control | dose: 400.0 mg/kg/injection, schedule: Q01DX009 (ip), vehicle: Klucel (hydroxypropylcellulose) (HPC) 93 % of control | dose: 400.0 mg/kg/injection, schedule: Q04DX002 (ip), vehicle: Klucel (hydroxypropylcellulose) (HPC) 101 % of control

COc1ccc(COC(=O)Nc2cccc(Cl)c2C)cc1
inactive: dose: 100.0 mg/kg/injection, schedule: Q01DX001 (ip), vehicle: saline with Tween-80 90 % of control | [4] 97 % of control and 98 % of control | [5] 95 % of control and 104 % of control | [6] 93 % of control | dose: 200.0 mg/kg/injection, schedule: Q01DX001 (ip), vehicle: saline with Tween-80 92 % of control | [7] 97 % of control and 89 % of control | [8] 101 % of control and 87 % of control | [9] 93 % of control | dose: 400.0 mg/kg/injection, schedule: Q01DX001 (ip), vehicle: saline with Tween-80 87 % of control | [10] 93 % of control | [11] 96 % of control and 101 % of control | [12] 96 % of control

NCC1OC(n2cnc3c(=O)[nH]c(N)nc32)C(O)C1O (stereo not drawn)
inactive: [13] 101 % of control | [14] 95 % of control | [15] 91 % of control

CCOC(=O)NC1C2CC3C(C2)C31 (stereo not drawn)
inactive: dose: 50.0 mg/kg/injection, schedule: Q01DX001 (ip), vehicle: carboxymethylcellulose (CMC) 107 % of control | [1] 103 % of control | [2] 101 % of control | [3] 109 % of control

CC12CC3CC(C)(C1)CC(CN=C(N)CCl)(C3)C2
inactive: dose: 6.25 mg/kg/injection, schedule: Q01DX009 (ip), vehicle: Klucel (hydroxypropylcellulose) (HPC) 106 % of control | dose: 12.5 mg/kg/injection, schedule: Q01DX009 (ip), vehicle: Klucel (hydroxypropylcellulose) (HPC) 100 % of control | dose: 12.5 mg/kg/injection, schedule: Q04DX002 (ip), vehicle: Klucel (hydroxypropylcellulose) (HPC) 96 % of control | dose: 25.0 mg/kg/injection, schedule: Q04DX002 (ip), vehicle: Klucel (hydroxypropylcellulose) (HPC) 96 % of control

COC(=O)/C=C(\C)CCC1OC1(C)C (stereo not drawn)
inactive: [13] 105 % of control | dose: 100.0 mg/kg/injection, schedule: Q04DX003 (ip), vehicle: acetone 95 % of control | [14] 100 % of control | dose: 200.0 mg/kg/injection, schedule: Q04DX003 (ip), vehicle: acetone 108 % of control | [15] 94 % of control | dose: 400.0 mg/kg/injection, schedule: Q04DX003 (ip), vehicle: acetone 103 % of control

O=CN/N=C\c1cccc2ccccc12
inactive: [16] 103 % of control | [17] 98 % of control | [18] 97 % of control

COc1cc(C(C)S(=O)(=O)c2ccccc2)ccc1O (stereo not drawn)
inactive: [1] 97 % of control | [2] 97 % of control | [3] 103 % of control

CCCCC1(CCC)C(=O)NC(=O)NC1=O
inactive: [16] 102 % of control | [17] 96 % of control | [18] 95 % of control

CCCCCC[As](=O)(O)CCCCCC
inactive: [19] 103 % of control

COc1cccc(C(N)C(=O)O)c1 (stereo not drawn)
inactive: [19] 94 % of control | [13] 100 % of control | [14] 105 % of control | [15] 97 % of control

CC12CCC3C4CCC(=O)C(O)=C4CCC3C1CCC2OC(=O)CCC1CCCC1 (stereo not drawn)
inactive: dose: 100.0 mg/kg/injection, schedule: Q01DX009 (sc), vehicle: steriod suspending solution 96 % of control | dose: 200.0 mg/kg/injection, schedule: Q01DX009 (sc), vehicle: steriod suspending solution 107 % of control | dose: 400.0 mg/kg/injection, schedule: Q01DX009 (sc), vehicle: steriod suspending solution 100 % of control

CO[C](=O)[Hg][c]1ccc(N=Cc2ccc(N(C)C)cc2Cl)cc1
inactive: dose: 1.56 mg/kg/injection, schedule: Q01DX001 (ip), vehicle: saline with Tween-80 99 % of control | dose: 3.13 mg/kg/injection, schedule: Q01DX001 (ip), vehicle: saline with Tween-80 103 % of control | dose: 6.25 mg/kg/injection, schedule: Q01DX001 (ip), vehicle: saline with Tween-80 89 % of control

CCC(=O)OCN1C(=O)C2C3CCC(O3)C2C1=O (stereo not drawn)
inactive: dose: 87.5 mg/kg/injection, schedule: Q01DX009 (ip), vehicle: other 98 % of control | dose: 175.0 mg/kg/injection, schedule: Q01DX009 (ip), vehicle: other 111 % of control
